Assay results published in publication PMC3814616, “BRAF inhibitors suppress apoptosis through off-target inhibition of JNK signaling” (eLife, 2013).

Columns and labels:
[1] = tested on: ZAK (T82Q)-expressing HaCaT cells; assay: UV-induced apoptosis in HaCaT cells overexpressing ZAK (WT) or gatekeeper mutant ZAK (T82Q); details: 1 μM, UVB 720 J/m^2, 24 hr
SRB12 cells = assay: UV-induced apoptosis, FACS Annexin V+, TMRE-low; type: cell-based, human; details: 1 kJ/m^2 UVB, 1 μM, 24 hr, vs DMSO
HaCaT cells = assay: UV-induced apoptosis, FACS Annexin V+, TMRE-low; type: cell-based, human; details: 1 kJ/m^2 UVB, 1 μM, 24 hr, vs DMSO
phospho-JNK = assay: Immunohistochemistry of cSCC from Hairless mice; type: in vivo, mouse; details: p=0.046
Text: (§1) We also used the Hairless mouse model of squamous cell carcinoma to assess whether PLX4720 would affect UV-driven tumor development. This is particularly relevant since it appears that UV exposure is an important initiating event in BRAFi-accelerated cSCC ([Su et al., 2012]). Unlike the DMBA/TPA model, in which lesions almost universally harbor Hras mutations ([Brown et al., 1990]), the Hairless model has a very low frequency of Ras mutation in papillomas and carcinomas ([van Kranen et al., 1995]), more similar to sporadic human cSCC. […]
(§2) Figure 5. […] (A and B) cDNA was reverse-transcribed from total RNA, PCR-amplified with the above primers (B) and analyzed by Sanger sequencing for mutations in both directions. No mutations in Hras, Kras, or Nras were detected in any of the papillomas (n = 5) or carcinomas (n = 3) isolated from PLX4720-treated mice. […]
(§3) Cutaneous squamous cell carcinomas biopsied from patients treated with or without BRAF-inhibitor were obtained either under clinical trials (Roche) or separate IRB approval (LAB08-0750). Staining levels were quantified by counting positively labeled cells and dividing by the total area of the tumor tissue within each sample. To measure tumor areas, all samples were photographed, tumor cells outlined, and total pixel numbers calculated using included image analysis tools in Adobe Photoshop and standardized to a hemacytometer to convert to mm^2. […]

cleaved caspase 3 = assay: Immunohistochemistry of cSCC from Hairless mice; type: in vivo, mouse; details: p=0.019
Text: as §1, §2, §3

[2] = tested on: phospho-JNK and phospho-p38; assay: Western blot, UV-induced phospho-JNK and phospho-p38 in NHEKs; type: cell-based, human; details: NHEK, 1 μM, most significantly at 6 and 24 hr
Text: We next examined the responses of primary normal human epidermal keratinocytes (NHEKs) to vemurafenib. […] In probing members of the BCL2 family, we found similar results to those in the cSCC and HaCaT cell lines. […] The advantage of using primary cells is that p53 is intact.
Figure 2. […] DOI: http://dx.doi.org/10.7554/eLife.00969.010 [drawing 5]

ASK1 = target: T1, ASK1 (Homo sapiens, UniProt Q99683); assay: In vitro kinase assay (Reaction Biology); type: biochemical; details: run in parallel
T1 construct: purchased Reaction Biology
Text: . Average percent inhibition was reported. […]

TAOK2 = target: T2, TAOK2 (Homo sapiens, UniProt Q9UL54); design: method as in Bollag et al., 2010; details: ref Bollag et al., 2010; read-out: Published biochemical IC50; cited from earlier work
T2 construct: purchased KINOMEscan (DiscoveRx), San Diego, CA
T2 sequence (Q9UL54 1-1235): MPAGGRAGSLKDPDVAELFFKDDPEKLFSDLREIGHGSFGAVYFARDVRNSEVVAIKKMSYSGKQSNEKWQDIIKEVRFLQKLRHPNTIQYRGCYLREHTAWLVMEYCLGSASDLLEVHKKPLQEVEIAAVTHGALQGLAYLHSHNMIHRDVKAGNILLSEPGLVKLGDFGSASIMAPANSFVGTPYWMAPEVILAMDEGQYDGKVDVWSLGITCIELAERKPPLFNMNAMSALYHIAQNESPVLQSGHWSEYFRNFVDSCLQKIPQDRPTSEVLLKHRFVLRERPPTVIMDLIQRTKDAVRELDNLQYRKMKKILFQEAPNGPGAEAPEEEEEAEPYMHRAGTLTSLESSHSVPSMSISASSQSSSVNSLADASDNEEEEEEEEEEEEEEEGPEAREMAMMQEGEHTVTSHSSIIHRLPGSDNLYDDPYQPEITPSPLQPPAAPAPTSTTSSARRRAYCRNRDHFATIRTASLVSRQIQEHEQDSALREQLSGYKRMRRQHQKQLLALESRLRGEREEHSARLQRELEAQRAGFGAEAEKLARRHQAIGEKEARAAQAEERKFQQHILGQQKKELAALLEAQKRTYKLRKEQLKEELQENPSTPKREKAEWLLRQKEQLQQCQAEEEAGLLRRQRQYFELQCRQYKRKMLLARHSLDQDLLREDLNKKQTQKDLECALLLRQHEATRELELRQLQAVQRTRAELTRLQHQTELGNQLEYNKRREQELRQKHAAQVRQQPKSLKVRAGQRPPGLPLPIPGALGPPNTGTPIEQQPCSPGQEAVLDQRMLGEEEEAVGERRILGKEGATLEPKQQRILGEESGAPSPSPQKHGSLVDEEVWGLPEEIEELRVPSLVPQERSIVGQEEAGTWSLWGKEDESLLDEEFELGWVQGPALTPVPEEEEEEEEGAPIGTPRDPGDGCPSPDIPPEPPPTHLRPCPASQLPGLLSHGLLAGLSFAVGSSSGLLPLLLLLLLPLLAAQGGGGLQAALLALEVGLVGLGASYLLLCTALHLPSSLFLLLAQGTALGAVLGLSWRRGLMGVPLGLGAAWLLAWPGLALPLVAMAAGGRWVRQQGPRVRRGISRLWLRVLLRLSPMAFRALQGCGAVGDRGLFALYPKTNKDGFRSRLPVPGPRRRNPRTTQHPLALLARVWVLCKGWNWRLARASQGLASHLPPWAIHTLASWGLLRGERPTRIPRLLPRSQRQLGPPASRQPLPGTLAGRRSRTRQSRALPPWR

T1 sequence (Q99683 whole entry): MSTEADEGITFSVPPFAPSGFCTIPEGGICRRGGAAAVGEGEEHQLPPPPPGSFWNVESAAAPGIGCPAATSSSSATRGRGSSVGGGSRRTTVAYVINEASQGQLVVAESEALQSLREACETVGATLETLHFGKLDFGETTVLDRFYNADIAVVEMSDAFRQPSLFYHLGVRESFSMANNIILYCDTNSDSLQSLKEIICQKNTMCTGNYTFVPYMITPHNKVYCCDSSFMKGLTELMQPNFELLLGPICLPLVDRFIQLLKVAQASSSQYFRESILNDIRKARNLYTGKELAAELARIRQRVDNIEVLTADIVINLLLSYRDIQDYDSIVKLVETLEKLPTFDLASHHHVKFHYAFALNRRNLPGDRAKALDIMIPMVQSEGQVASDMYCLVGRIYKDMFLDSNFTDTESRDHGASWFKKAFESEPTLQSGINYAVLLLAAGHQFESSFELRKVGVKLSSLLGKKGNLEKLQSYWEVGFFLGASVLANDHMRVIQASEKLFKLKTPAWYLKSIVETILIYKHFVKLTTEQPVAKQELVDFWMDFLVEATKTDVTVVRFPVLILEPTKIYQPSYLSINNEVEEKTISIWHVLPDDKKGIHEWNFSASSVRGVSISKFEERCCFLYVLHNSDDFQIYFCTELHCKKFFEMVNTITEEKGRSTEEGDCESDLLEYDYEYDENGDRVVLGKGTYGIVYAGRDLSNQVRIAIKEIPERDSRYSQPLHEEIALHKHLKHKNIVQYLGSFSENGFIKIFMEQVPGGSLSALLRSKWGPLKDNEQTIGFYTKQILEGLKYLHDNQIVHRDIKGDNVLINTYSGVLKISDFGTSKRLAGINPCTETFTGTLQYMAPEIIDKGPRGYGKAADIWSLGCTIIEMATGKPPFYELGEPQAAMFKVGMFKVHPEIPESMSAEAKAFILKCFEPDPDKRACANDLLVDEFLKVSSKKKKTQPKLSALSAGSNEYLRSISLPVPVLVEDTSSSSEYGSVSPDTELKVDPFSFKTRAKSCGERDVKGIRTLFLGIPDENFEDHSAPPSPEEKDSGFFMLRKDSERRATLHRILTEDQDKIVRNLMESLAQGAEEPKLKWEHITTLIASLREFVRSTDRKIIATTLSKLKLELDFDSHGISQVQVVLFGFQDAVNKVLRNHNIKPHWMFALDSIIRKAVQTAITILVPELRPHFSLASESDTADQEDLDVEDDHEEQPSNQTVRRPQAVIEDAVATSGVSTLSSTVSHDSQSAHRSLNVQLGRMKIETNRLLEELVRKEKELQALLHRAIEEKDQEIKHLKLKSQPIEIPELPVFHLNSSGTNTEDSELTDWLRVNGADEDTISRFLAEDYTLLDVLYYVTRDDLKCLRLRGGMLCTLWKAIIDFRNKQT

SMILES | apoptosis of drug-treated ZAK (T82Q)-expressing cells as share of the levels in untreated cells [1] | suppression of UV-induced apoptosis (SRB12 cells) | suppression of UV-induced apoptosis (HaCaT cells) | phospho-JNK expression in tumors vs control-treated mice (phospho-JNK) | cleaved caspase 3 expression in tumors vs control-treated mice (cleaved caspase 3) | UV-induced upregulation of phospho-JNK and phospho-p38 [2] | inhibition of ASK1 (ASK1) | IC50 (TAOK2)
CCCS(=O)(=O)Nc1ccc(F)c(C(=O)c2c[nH]c3ncc(Cl)cc23)c1F [PLX4720] | 76.9% | at least 70% | at least 70% | significant decreases | significant decreases | – | – | –
CCCS(=O)(=O)Nc1ccc(F)c(C(=O)c2c[nH]c3ncc(-c4ccc(Cl)cc4)cc23)c1F [vemurafenib] | – | – | – | – | – | suppressed | no significant inhibition | > 1000 nM
